Assay results reported in US7745431B2, “Pharmaceutical composition of 1-(3,4-dimethoxyphenyl)-4-methyl-5-ethyl-7-methoxy-8-hydroxy-5H-2,3-benzodiazepine and uses thereof” (priority 2002, dated 2010).
Like-named read-outs stand apart in the source and are kept apart here.

What was measured:
adenosine receptor = experiment: Adenosine binding assay, [3H]-NECA, bovine striatal membrane
Procedure: The ability of 1-(3,4-dimethoxyphenyl)-4-methyl-5-ethyl-7-methoxy-8-hydroxy-5H-2,3-benzodiazepine to inhibit the binding of [^3H]5′-N-ethylcarboxamidoadenosine (NECA) (15-30 Ci/mmol) was determined via the bovine striatal membrane assay of Bruns et al., “Characterization of the A2 Adenosine Receptor Labeled by [^3H]-NECA in Rat Striatal Membrane”, Pharmacology, 29: 331-346 (1986), with modifications. See also, Weir et al. “Inhibition of N6-[^3H]CHA Binding by Carbamazepine” Epilepsia, 31(5), 503-512 (1990) with modifications; and Holtzman et al., “Role of Adenosine Receptors in Caffeine Tolerance,” J. Pharmacol. & Exp. Ther., 256(1), 62-67 (1990).
(§1) Reactions were carried out in 50 mM TRIS-HCl (pH 7.7) at 25° C. for 60 minutes. The reaction was terminated by rapid vacuum filtration onto glass fiber filters. Radioactivity trapped onto the filters was determined and compared to control values in order to ascertain any interactions of test compound with the adenosine binding site.

TXA2 receptor = target: T1, TXA2 receptor (Homo sapiens, UniProt P21731); experiment: TXA2 binding assay, [3H]SQ 29,548, human platelet-based; details: for inhibition at 10 µM: inhibition of [3H]SQ 29,548 binding, human platelets
T1 construct: determined via the human platelet-based assay of Hedberg et al; from tissue; host or cells: human platelets
T1 sequence (P21731 1-343): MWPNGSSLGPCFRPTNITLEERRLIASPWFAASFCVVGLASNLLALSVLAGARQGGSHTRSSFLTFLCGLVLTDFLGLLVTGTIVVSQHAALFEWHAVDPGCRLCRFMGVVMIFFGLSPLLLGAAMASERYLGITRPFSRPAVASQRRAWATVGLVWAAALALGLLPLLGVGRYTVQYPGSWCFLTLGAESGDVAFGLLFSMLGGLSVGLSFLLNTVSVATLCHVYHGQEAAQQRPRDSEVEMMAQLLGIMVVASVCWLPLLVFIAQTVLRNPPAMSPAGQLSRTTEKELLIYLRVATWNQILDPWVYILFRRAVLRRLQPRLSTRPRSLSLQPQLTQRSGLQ
Procedure: The ability of 1-(3,4-dimethoxyphenyl)-4-methyl-5-ethyl-7-methoxy-8-hydroxy-5H-2,3-benzodiazepine to inhibit the binding of [^3H]SQ 29,548 (30-60 Ci/mmol) was determined via the human platelet-based assay of Hedberg et al., “Characterization of [^3H]SQ 29,548 as a High Affinity Radioligand Binding to Thromboxane A2—Receptors in Human Platelets.”, J. Pharmacol. Exp. Ther. 245: 786-792 (1988), with modifications. TXA2 is a very unstable molecule, thus a surrogate ligand of known affinity for the TXA2 receptor is required as a standard for determination of binding affinity of new potential TXA2 ligands. [^3H]SQ 29,548 is a ligand with known binding affinity for the TXA2 receptor. [^3H]SQ 29,548 has been employed as a TXA2 ligand in several published studies, is accepted as a TXA2 binding standard, and is thus useful as a standard in assessing the binding affinity of new compounds to the TXA2 receptor. See also, Armstrong, R. A., Jones, R. L., et al. “Ligand Binding to Thromboxane Receptors on Human Platelets: Correlation with Biological Activity.” Brit. Jrnl. Pharmac. 79:953-964 (1983), the entire disclosures of which are incorporated herein by reference.
as §1, with “25” for “50”, “7.4) containing 138 mM NaCl, 5 mM KCl, 5 mM MgCl2, 5.5 mM dextrose, and 2 mM EDTA” for “7.7)”, “minutes. […]” for “minutes.”, “thromboxane A2” for “adenosine”

LTB4 receptor = target: T2, LTB4 receptor (Cavia porcellus, UniProt H0VYV8); experiment: Inhibition of [3H]LTB4 binding, guinea pig spleen membrane assay
T2 construct: 1.0 mg/mL of the Guinea pig spleen membrane preparation; from tissue; host or cells: guinea pig spleen membranes
Procedure: The ability of 1-(3,4-dimethoxyphenyl)-4-methyl-5-ethyl-7-methoxy-8-hydroxy-5H-2,3-benzodiazepine to inhibit [^3H]LTB4 binding to the LTB4 receptor was determined as follows using the guinea pig spleen membrane assay of Cheng et al., J. Pharmacol. Exp. Ther., 236(1), 126-132, 1986, the entire disclosure of which is incorporated herein by reference.
Reactions were carried out in a phosphate buffer (pH 7.4) containing NaCl, MgCl2, EDTA, and bacitracin. The reaction volume of 150 μL containing 1.0 mg/mL of the Guinea pig spleen membrane preparation and 1 nM [^3H]LTB4, with or without a candidate inhibitor, was incubated at 0-4° C. for 2 hours. Candidate inhibitors included the compounds listed in Table 1 and unlabeled LTB4 as a control. The reaction was terminated by rapid vacuum filtration onto glass fiber filters. The filter was washed with cold buffer, dried and placed in a scintillation vial. Radioactivity trapped onto the filters was determined and compared to control values in order to ascertain any interactions of the test compound with the LTB4 binding site.

Male Swiss mice = experiment: Mouse maximal electroshock test; type: in vivo; details: for Duration of tonic seizure Mean ± SEM: i.p., about 30 min before electroshock, mice; for anticonvulsant activity: vs. vehicle
Procedure: In this model of tonic-clonic seizure activity, seizures were produced by application of an AC current via corneal electrodes. The maximal electroshock model is commonly employed to assay anticonvulsant activity. See, Swinyard et al., J. Pharmacol. Exp. Therap., 1952, 106, 319-330; the entire disclosure of which is incorporated herein by reference.
Each animal was dosed with one of:
(1) diazepam, 20 mg/kg dissolved in normal saline as a reference standard;
(2) 1-(3,4-dimethoxyphenyl)-4-methyl-5-ethyl-7-methoxy-8-hydroxy-5H-2,3-benzodiazepine at a dose of 15, 30, 45 or 60 mg/kg; dissolved in 15% DMSO, 35% PEG and 50% deionized water (vehicle); or
(3) vehicle comprising 15% DMSO, 35% PEG and 50% deionized water.
The concentrations of each of the dosed substances were normalized such that the volume of each dose was 10 mL/kg.
Approximately thirty minutes following administration of the above dose, full tonic-clonic seizures were induced in the animals by applying an AC current (50 Hz, 50 mA, 0.2 seconds) using an ECT unit 7800 (Ugo Basile, Comerio, Italy) through corneal electrodes. The appearance and duration of the induced seizures, as characterized by a tonic extension of hindlimbs past 90° were recorded. The seizure data are reproduced in Table 4 showing the seizure data as a mean with a standard error of the mean.

rats = details: cited from earlier work
mice [1] = details: cited from earlier work
mice [2] = details: cited from earlier work; remark: listed apart in the source
central BZ receptors = details: cited from earlier work
peripheral BZ receptors = peripheral BZ receptors (Homo sapiens, UniProt P30536); details: cited from earlier work
Sequence of peripheral BZ receptors (P30536 whole entry): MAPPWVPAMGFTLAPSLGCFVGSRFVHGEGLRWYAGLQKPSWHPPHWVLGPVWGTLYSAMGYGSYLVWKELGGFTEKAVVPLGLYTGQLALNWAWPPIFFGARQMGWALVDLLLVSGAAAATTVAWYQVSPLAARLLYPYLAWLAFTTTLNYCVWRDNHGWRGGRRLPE

T2 sequence (H0VYV8 1-348): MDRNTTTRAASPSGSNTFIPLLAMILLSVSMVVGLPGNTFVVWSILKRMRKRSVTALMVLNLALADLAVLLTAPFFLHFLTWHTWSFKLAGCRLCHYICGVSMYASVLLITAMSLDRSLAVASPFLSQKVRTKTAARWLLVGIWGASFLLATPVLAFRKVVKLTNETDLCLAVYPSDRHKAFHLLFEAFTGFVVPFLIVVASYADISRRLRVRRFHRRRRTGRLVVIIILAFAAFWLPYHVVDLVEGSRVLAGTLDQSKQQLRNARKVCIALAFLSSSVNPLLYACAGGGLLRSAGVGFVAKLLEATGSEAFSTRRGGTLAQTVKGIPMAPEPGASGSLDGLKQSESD

Row | Molecule | Adenosine non-selective @ 10 μM (inhibition of [3H]-NECA binding) (adenosine receptor) | inhibition at 10 µM (TXA2 receptor) | inhibition at 10 µM (LTB4 receptor) | inhibition of muricide (rats) | inhibition of aggression (mice [1]) | other results
1 | CCC1C(C)=NN=C(c2ccc(OC)c(OC)c2)c2cc(O)c(OC)cc21 (racemic) [Compound 2, 1-(3,4-dimethoxyphenyl)-4-methyl-5-ethyl-7-methoxy-8-hydroxy-5H-2,3-benzodiazepine] | 61.50% | 48.3% | 36% | – | – | LTB4 % inhibition @ 10 μM (LTB4 receptor; 10 µM): 35.96%; Duration of tonic seizure Mean ± SEM (Male Swiss mice; 15 mg/kg): 9.0 ± 2.5 s; Duration of tonic seizure Mean ± SEM (Male Swiss mice; 30 mg/kg): 5.5 ± 1.1 s; Duration of tonic seizure Mean ± SEM (Male Swiss mice; 45 mg/kg): 6.5 ± 1.7 s; anticonvulsant activity (Male Swiss mice; 60 mg dose): comparable anticonvulsant activity, but fell short of statistical significance; Duration of tonic seizure Mean ± SEM (Male Swiss mice; 60 mg/kg): 5.7 ± 1.8 s; anticonvulsant activity (Male Swiss mice; 30 and 45 mg/kg doses): statistically significant anticonvulsant activity
2 | CCC1C(C)=NN=C(c2ccc(O)c(OC)c2)c2cc(OC)c(OC)cc21 (stereo not drawn) [Compound 3, 1-(3-methoxy-4-hydroxyphenyl)-4-methyl-5-ethyl-7,8-dimethoxy-5H-2,3-benzodiazepine] | inactive | 1.98% | 49.9% | 0% | 0% | narcosis-potentiating activity (mice [2]): demonstrate narcosis-potentiating activity
3 | Pinane-thromboxane | – | – | – | – | – | Ki (TXA2 receptor; competitor in the [3H]SQ 29,548 binding assay): 149 nM
4 | CCC1C(C)=NN=C(c2ccc(O)c(OC)c2)c2cc(OC)c(O)cc21 (stereo not drawn) [Compound 5, 1-(3-methoxy-4-hydroxyphenyl)-4-methyl-5-ethyl-7-hydroxy-8-methoxy-5H-2,3-benzodiazepine] | 22.40% | 44% | – | 20% | 28.6% | LTB4 % inhibition @ 10 μM (LTB4 receptor): inactive
5 | CCC1C(C)=NN=C(c2ccc(OC)c(OC)c2)c2cc(OC)c(OC)cc21 (stereo not drawn) [tofisopam] | – | – | – | – | – | interaction with central BZ receptors (central BZ receptors): does not interact; binding to peripheral BZ receptors (peripheral BZ receptors): binds only weakly
6 | CCC1C(C)=NN=C(c2ccc(OC)c(OC)c2)c2cc(OC)c(O)cc21 (stereo not drawn) [Compound 1, 1-(3,4-dimethoxyphenyl)-4-methyl-5-ethyl-7-hydroxy-8-methoxy-5H-2,3-benzodiazepine] | 6.73% | 42.7% | 20.4% | 20% | 0% | –
7 | CCC1C(C)=NN=C(c2ccc(OC)c(O)c2)c2cc(OC)c(OC)cc21 (stereo not drawn) [Compound 4, 1-(3-hydroxy-4-methoxyphenyl)-4-methyl-5-ethyl-7,8-dimethoxy-5H-2,3-benzodiazepine] | 4.26% | 25.9% | 63.9% | – | – | –
8 | CN1C(=O)CN=C(c2ccccc2)c2cc(Cl)ccc21 [Diazepam, diazepam] | – | – | – | – | – | Duration of tonic seizure Mean ± SEM (Male Swiss mice; 20 mg/kg): 1.8 ± 0.7 s
9 | CCC1C(C)=NN=C(c2ccc(OC)c(O)c2)c2cc(OC)c(O)cc21 (stereo not drawn) [Compound 6, 1-(3-hydroxy-4-methoxyphenyl)-4-methyl-5-ethyl-7-hydroxy-8-methoxy-5H-2,3-benzodiazepine] | 27.52% | 45.7% | – | – | – | LTB4 % inhibition @ 10 μM (LTB4 receptor): inactive
